Among the data in publication PMC12019328, “Discovery of an ApoE4-targeted small-molecule SirT1 enhancer for the treatment of Alzheimer’s disease” (Scientific Reports, 2025) are brain levels values, retold here.

This series can be described thus: In vivo pharmacokinetic analysis, brain levels after oral gavage. Further details: species or system C57BL/6J mice. To be noted: single time point one hour, oral gavage 30 mg/Kg, n = 1; 30 mg/kg. As to the method: […] One hour later, mice were euthanized by pentobarbital over-anesthesia and trans-cardial collection of blood for isolation of plasma by centrifugation at 10,000 x g for 10 min at 4 °C. Brain tissue was collected for analysis, frozen on dry ice and stored at -80 °C before analysis.
For LC/MS/MS analysis, tissue samples were homogenized in a bead beater using 5 volumes of ice-cold 80% acetonitrile (1/5; mg of tissue/ µL of 80% ACN). Solutions were clarified by centrifugation (16,000 x g, 5 min) and the supernatants were transferred to new tubes and lyophilized. Samples were reconstituted in 100 µL of 50/50/0.1 (water/acetonitrile/formic acid) before analysis via liquid chromatography-tandem mass spectrometry.
A 6460 triple quadrupole mass spectrometer (Agilent Technologies) coupled to a 1290 Infinity HPLC system (Agilent Technologies) with a Phenomenex analytical column (Kinetex 1.7 μm C18 100 Å 100 × 2.1 mm) was used for HPLC. The HPLC method utilized a mixture of solvent A (99.9/1 water/formic acid) and solvent B (99.9/1 acetonitrile/formic acid) and a gradient was used for the elution of the compounds (min/%B: 0/20, 3/20, 19/99, 20/99, 21/20, 30/20).
An internal standard (IS; Reserpine) was added to every sample to account for compound loss during sample processing. Standards were made in drug naïve brain and plasma with increasing amounts of DDL-214- (S1,S2: 0.1 pmol/ S3,S4: 1 pmol/ S5,S6: 10 pmol/ S7,S8: 100 pmol/ S9,S10: 1000 pmol). The standard curve was made by plotting the amount of each compound per standard vs. the ratio of measured chromatographic peak areas corresponding to DDL-214 (DDL-214 -/Reserpine). The trendline equation was then used to calculate the absolute concentrations of DDL-214/-218/-219 in brain tissue and plasma.

“And” between values parts separate entries of the source, which are not always exact repeats. Equal entries are not always repeated.

Regarding `CC(N)C(=O)OC(C)(C)Cc1ccncc1` (stereo not shown) [DDL-218], the brain levels is ~ 8400 ng/g and 37.8 µM.
